What was measured:
[1] = PRO-001 (ProGem1) first-in-human phase I study, pharmacokinetics; format: in vivo; settings: compared with gemcitabine
From the text: PRO-001 (aka ProGem1) was a first-in-human (FIH), phase I, open label, two stage study to investigate the safety, tolerability, clinical efficacy, pharmacokinetics (PK) and pharmacodynamics (PD) of NUC-1031 given in two parallel dosing schedules in subjects with advanced solid malignancies (EudraCT Number: 2011-005232-26). Subjects had the following tumour types at study entry: colorectal cancer (7 subjects), unknown primary (3), ovarian cancer (13), breast cancer (4), pancreatic cancer (9), cholangiocarcinoma (7), uterine or endometrial cancer (3), cervix cancer (2), lung cancer (6), mesothelioma (3) and thymus cancer (1). The study confirmed NUC-1031′s anti-tumour activity in patients with advanced progressive cancers, who have exhausted all standard therapeutic options, many of whom were resistant or refractory to prior nucleoside analogue therapy, including gemcitabine.

[2] = test system: platinum sensitive recurrent ovarian cancer; settings: cited from earlier work

SMILES	levels of the potentially toxic metabolite dFdU released [1]	response rate [2] [%]	median PFS ([2]; median follow-up of 17 months) [months]
C[C@H](NP(=O)(OC[C@H]1O[C@@H](n2ccc(N)nc2=O)C(F)(F)[C@@H]1O)Oc1ccccc1)C(=O)OCc1ccccc1 (stereo partly drawn) [NUC-1031, 2′-Deoxy-2′,2′-difluoro-D-cytidine-5′-O-[phenyl (benzoxy-L-alaninyl)] phosphate]	lower levels	–	–
N.N.O=C([O-])C1(C(=O)[O-])CCC1.[Pt+2] [carboplatin]	–	30.9	5.8

Source: patent publication US20200197430A1, “Combination Therapy” (NuCana plc, priority 2017, published 2020)
